These results are taken from patent publication US8207206B2, “(S,R)-3-phenyl-4,5 dihydro-5-isoxazole acetic acid-nitric oxide and use thereof as anti-cancer and antiviral agent” (OncoNOx APS, priority 2007, dated 2012).

Assay [1] concerns B16 cells. Description: CFSE staining, tumor cell proliferation rate (flow cytometry). The assay is classed as cell-based, mouse. Conditions: B16, GIT27-NO 25 μg/ml, after 48 h; control 2.00%. The protocol: (§1) The cells were seeded in flat-bottom 96-well plates (10^4 cells/well) in a final volume of 200 μl of culture medium, incubated overnight, then treated with different concentrations of the test compound. After 24 h incubation, cell viability was assessed using 3-4,5-dimethylthiazol-2-yl)-2,5-diphenyltetrazolium bromide (MTT) test, based on the mitochondrial-dependent reduction of MTT to formazan, or by crystal violet (CV) staining of adherent cells, as previously described (Mijatovic et al CMLS 2004). The results are presented as % of control values obtained in untreated cultures. The rate of cell proliferation was also determined using flow cytometric analysis of cells labeled with CFSE (Kang 2005). The cells were detached, added with 1.5 μM CFSE and allowed to stand for 15 min at 37° C., then washed twice and seeded in 6-well plates at 2×10^5. The cells were treated with the compound for 24 and 48 h, trypsinized and washed twice. Finally, the cells were resuspended in PBS and analyzed by flow cytometry. Green fluorescence emission from cells illuminated with excitation light of 488 nm was measured with a FACS Calibur (BD, Heidelberg, Germany) and analyzed using the CellQuest software.

The next assay has as its system L929 cells. Described as above. The assay is classed as cell-based, mouse. Conditions: L929, GIT27-NO 25 μg/ml, after 48 h; control 7.26%. The protocol:
as §1

The subject of assay [2] is C6 cells. Description: LDH release assay (cell death). The assay is classed as cell-based, rat. Conditions: C6, dose-dependent (24 h) and time-dependent (25 μg/ml), significant after 18 h. The protocol: (§2) As a marker of necrotic cell death, the release of intracellular enzyme LDH, which mediates the conversion 2,4-dinitrophenylhydrazine into visible hydrazone precipitate in the presence of pyruvate, was measured. The cells were seeded in flat-bottom 96-well plates as indicated above and the assay was performed after 24 h incubation, as previously described (Decker et al). The percentage of dead cells was determined using the following formula: [(E−C)/(T−C)]×100, wherein E is the experimental absorbance of treated cultures measured at 492 nm, C is the absorbance of supernatants of control untreated cells, and T is the absorbance corresponding to the maximal (100%) LDH release of Triton-lysed cells. Cell cycle analysis and apoptosis detection were carried out exactly as described in the literature (Mijatovic CMLS 2005). Acidic vesicular organelles, which characterise autophagy, are stained by vital dye acridin orange. The intensity of red fluorescence is proportional to the acidity and volume of the organelles, while the cytoplasm and nucleolus emits bright green and dim red (Kanzawa 2004). […] Green (510-530 nm) and red (>650 nm) fluorescence emission from 10^4 cells illuminated with blue (488 nm) excitation light was measured with a FACS Calibur and analyzed using CellQuest software.

Assay [3] relates to C6 cells. Description: Autophagy detection by acridin orange staining (flow cytometry). In kind it is cell-based, rat. The note with it: C6, 25 μg/ml, 24 h. How it is done:
as §2

The subject of assay [4] is B16 cells. The assay is described as above. The assay is classed as cell-based, mouse. The note with it: B16, 25 μg/ml, 24 h. How it is done:
as §2

The subject of assay [5] is MAP kinases (p38 MAPK, ERK, JNK) in C6 cells. Description: Cell-based ELISA for activation of MAP kinases. On the set-up: species or system rat. Conditions: C6, 25 μg/ml, time course. The protocol:
Activation of MAP kinases (p38 MAPK, extracellular signal-regulated kinase—ERK, and Jun-N-terminal kinase—JNK) or nuclear factor-κB (NF-κB) was determined by means of a slightly modified method of cell-based ELISA by Versteeg et al. (Versteeg 2000). Since MAP kinases are activated by phosphorylation, and phosphorylation of the inhibitory subunit IκB is a necessary step for NF-κB activation, we used antibodies specific for phosphorylated forms of MAP kinases (p-p38, p-ERK and p-JNK) and IκB (p-IκB). The cells were grown overnight in 96-well flat-bottom plates in a culture medium containing 0.5% FCS and then treated with the test compound diluted in conventional culture medium. At the end of treatment period the cells were fixed in 4% parformaldehyde, endogenous peroxydase was quenched with 1% H2O2 in PBS containing 0.1% Triton X-100 (PBST), and unspecific binding of antibodies was blocked with a PBST solution containing 10% FCS. Primary mouse monoclonal antibodies specific for rat/mouse p-ERK, p-p38, p-JNK, p-IκB (1:200; all from Santa Cruz Biotechnology, Santa Cruz, Calif.) were applied in PBST supplemented with 2% bovine serum albumine (PBSTB), followed by secondary peroxidase-conjugated goat anti-mouse IgG (1:2500 in PBSTB; USB corporation, Cleveland, Ohio) for anti-p-ERK, anti-p-JNK and anti-p-IκB, or anti-mouse IgM (1:4000; USB corporation) for detection of anti-p-p38. Incubation with antibodies was carried out at 37° C. for 1 h. After 15 min incubation with peroxydase substrate TMB and subsequent addition of 0.1 M HCl, the absorbance at 450 nm was measured in an automated microplate reader. To enable comparison between treatment and control, the resulting absorbances were corrected for the cell number determined by crystal violet staining, as described in the original protocol. The results are presented as relative expression in comparison with the control value, which was arbitrarily set to 1.

The next assay has as its system ConA-induced hepatitis. Nature of the assay: Hepatitis induced by concanavalin (ConA) injection in NMRI mice. The assay is classed as in vivo. The note with it: prophylactic, all tested doses (0.5 and 1 i.p., 5 mg/mouse p.o.), -24 and -1 h prior to ConA, blood 8 h after ConA, vs vehicle. The protocol:
ConA-induced hepatitis is a cell-mediated immunoinflammatory condition similar to different immunoinflammatory conditions of liver diseases in humans that can be induced in mice by a single intravenous injection of ConA. This disease is characterized by a marked increase in the plasma levels of transaminase shortly (8-24 hours) after ConA challenge and simultaneous infiltration of the liver with neutrophils, macrophages and T cells followed by apoptosis and necrosis of the hepatocytes.
Hepatitis was induced by ConA (Sigma Chemical, St. Louis, Mo.) injection into the tail veins in six to 9 weeks Naval Medical Research Institute (NMRI) male mice. Four groups of mice were treated or i.p. with Git27-NO at the doses of 0.5 and 1 or p.o. at 5 mg/mouse or with the vehicle, −24 and −1 hours prior to ConA. The animals were sacrificed for blood collection 8 hours after Con A injection and plasma alanine aminotransferase (ALT) activity was determined by a standard photometric assay using a bichromatic analyzer.

For the compound `N#Cc1c(COC(=O)CC2CC(c3ccccc3)=NO2)no[n+]1[O-]` (racemic) [GIT27-NO, (S,R)-3-phenyl-4,5 dihydro-5-isoxazole acetic acid-nitric oxide], in the assay with B16 cells [1], the “CFSE R1 = parent population” value is on record as 6.90%. In the assay on L929 cells, the “CFSE R1 = parent population” value was 13.23%. In the assay on C6 cells [2], the LDH release result is recorded as “induced LDH release”. In the assay on C6 cells [3], the “acidic autophagic vesicles (red fluorescence of acridin orange)” value is on record as “significantly increased the intensity of bright red fluorescence”. Moreover, in the assay on B16 cells [4], the “acidic autophagic vesicles (red fluorescence of acridin orange)” value is given as “significantly increased the intensity of bright red fluorescence”. In assay [5], the “activation of ERK1/2” value is recorded as “permanent activation”, the “activation of JNK” value is “permanent activation” and the “activity of p38” value is “not affected”. Also, the “plasma ALT activity” value in the assay with ConA-induced hepatitis is recorded as “significantly reduced”.
